For twelve compounds, IC50 results are on record in patent US11078206B2, “Amino-fluoropiperidine derivatives as kinase inhibitor” (Daewoong Pharmaceutical Co., Ltd., priority 2017, dated 2021).

Experiment [1] concerns the target Recombinant purified human BTK (Homo sapiens (Human), UniProt Q06187). The experiment in a line: BTK kinase inhibitory activity (ADP Glo assay). Conditions: read-out: BTK IC50, ATP 10 uM, 1 hour 30° C.
In experiment [2] the test system is JAK3 kinase (STAT5 phosphorylation induced by IL-2 in HT-2 cells). The experiment in a line: JAK3-mediated cell assay (HT-2/IL-2 assay), STAT5 phosphorylation. Format: cell-based. Conditions: HT2, compound 30 minutes, IL-2 20 ng/ml 10 minutes, HTRF phospho-STAT5 (Tyr694). How it is done: The inhibitory activities against JAK3 kinase at the cellular level were measured for the compounds prepared in the Examples through in vitro analysis of STAT5 phosphorylation induced by IL-2 stimulation in HT-2 cells. Specifically, STAT5 phosphorylation was analyzed using HTRF®phospho-STAT5 (Tyr694) assay kit (Cisbio, 64AT5PEG), which was purchased from Cisbio. HT-2 cells were cultured for 2 hours in growth factor-free medium. The cultured HT-2 cells were dispensed into 96-well plates by 50 ul so as to be a density of 2.5×10^5 cells/well. The compounds prepared in the previous Examples were prepared so as to be finally a 0.3% DMSO aqueous solution, and HT-2 cells was treated with the compounds for 30 minutes. After the compound treatment, IL-2 was prepared so as to be finally a concentration of 20 ng/ml, and HT-2 cells was treated for 10 minutes. The cells were then disrupted by treating lysis buffers for 30 minutes. The level of STAT5 phosphorylation was measured according to the instructions of HTRF® phospho-STAT5 assay kit, and the inhibitory activity of the compounds according to the invention was calculated. For the analysis of the results of each compound, Microsoft Excel was used, and IC50 values were calculated by SigmaPlot software.

The target in experiment [3] is Recombinant purified human JAK3 (Homo sapiens (Human), UniProt P52333). The experiment in a line: JAK3 kinase inhibitory activity (ADP Glo assay). The note with it: read-out: JAK3 IC50, ATP 5 uM, 1 hour 30° C.
Chain of Recombinant purified human JAK3 (P52333 whole entry): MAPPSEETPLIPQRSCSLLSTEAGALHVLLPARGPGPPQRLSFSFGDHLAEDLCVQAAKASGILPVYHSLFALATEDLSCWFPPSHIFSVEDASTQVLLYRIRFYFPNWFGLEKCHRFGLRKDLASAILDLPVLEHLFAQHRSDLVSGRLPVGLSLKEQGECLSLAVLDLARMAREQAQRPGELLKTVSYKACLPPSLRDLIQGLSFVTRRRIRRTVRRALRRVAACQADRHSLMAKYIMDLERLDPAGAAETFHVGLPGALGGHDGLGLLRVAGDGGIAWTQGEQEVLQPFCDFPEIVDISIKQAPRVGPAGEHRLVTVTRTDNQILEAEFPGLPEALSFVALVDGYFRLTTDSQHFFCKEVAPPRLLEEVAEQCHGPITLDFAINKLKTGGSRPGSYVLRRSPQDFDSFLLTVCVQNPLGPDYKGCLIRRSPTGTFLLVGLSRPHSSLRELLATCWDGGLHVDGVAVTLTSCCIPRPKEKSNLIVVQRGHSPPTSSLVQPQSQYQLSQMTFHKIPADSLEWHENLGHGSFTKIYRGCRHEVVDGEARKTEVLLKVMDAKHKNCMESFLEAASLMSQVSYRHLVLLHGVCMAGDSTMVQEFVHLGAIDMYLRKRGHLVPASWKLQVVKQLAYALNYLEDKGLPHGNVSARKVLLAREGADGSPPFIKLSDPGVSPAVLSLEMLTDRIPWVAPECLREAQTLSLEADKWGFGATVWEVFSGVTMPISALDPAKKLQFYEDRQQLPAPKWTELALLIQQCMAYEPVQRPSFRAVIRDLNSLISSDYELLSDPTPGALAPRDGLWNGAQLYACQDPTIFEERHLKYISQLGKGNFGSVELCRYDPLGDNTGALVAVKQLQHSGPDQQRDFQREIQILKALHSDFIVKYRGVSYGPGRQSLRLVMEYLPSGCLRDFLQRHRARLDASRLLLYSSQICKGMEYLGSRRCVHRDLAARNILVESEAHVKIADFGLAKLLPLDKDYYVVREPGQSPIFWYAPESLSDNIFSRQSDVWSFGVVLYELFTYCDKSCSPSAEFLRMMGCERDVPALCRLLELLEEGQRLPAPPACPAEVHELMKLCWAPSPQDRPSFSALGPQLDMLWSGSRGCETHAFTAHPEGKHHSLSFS

SMILES strings stand for the structures.

Chain of Recombinant purified human BTK (Q06187 whole entry): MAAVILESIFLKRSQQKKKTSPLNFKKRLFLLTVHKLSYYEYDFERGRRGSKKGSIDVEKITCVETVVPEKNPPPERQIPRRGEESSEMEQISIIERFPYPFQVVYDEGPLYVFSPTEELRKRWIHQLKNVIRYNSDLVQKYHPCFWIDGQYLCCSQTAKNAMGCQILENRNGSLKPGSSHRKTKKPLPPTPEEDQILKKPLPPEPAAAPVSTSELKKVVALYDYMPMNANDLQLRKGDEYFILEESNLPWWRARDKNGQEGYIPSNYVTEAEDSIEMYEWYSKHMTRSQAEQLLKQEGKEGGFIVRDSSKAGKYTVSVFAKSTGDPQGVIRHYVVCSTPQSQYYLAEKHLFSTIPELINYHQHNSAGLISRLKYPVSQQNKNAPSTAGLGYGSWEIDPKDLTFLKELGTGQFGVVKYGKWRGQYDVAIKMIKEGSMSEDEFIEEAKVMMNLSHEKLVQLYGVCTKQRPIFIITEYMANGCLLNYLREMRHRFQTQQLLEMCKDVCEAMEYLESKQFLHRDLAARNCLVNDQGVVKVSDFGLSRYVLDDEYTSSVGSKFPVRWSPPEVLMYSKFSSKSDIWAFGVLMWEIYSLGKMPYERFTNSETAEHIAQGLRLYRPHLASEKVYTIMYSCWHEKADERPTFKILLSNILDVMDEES

Turning to `C=CC(=O)N1CC[C@@H](F)[C@@H](Nc2nc(Nc3cnoc3)nc3[nH]cc(C#N)c23)C1` [Example 9, 4-((3S,4R)-1-acryloyl-4-fluoropiperidin-3-ylamino)-2-(isoxazol-4-ylamino)-7H-pyrrolo[2,3-d]pyrimidine-5-carbonitrle], the IC50 in experiment [1] was found to be 2200 pM; in experiment [2], 282000 pM; in experiment [3], 300 pM.

For the compound `C=CC(=O)N1CC[C@H](F)[C@@H](Nc2nc(Nc3cnn(CC)c3)nc3[nH]cc(Cl)c23)C1` [Example 12, 1-((3S,4S)-3-(5-chloro-2-(1-ethyl-1H-pyrazol-4-ylamino)-7H-pyrrolo[2,3-d]pyrimidin-4-ylamino)-4-fluoropiperidin-1-yl)prop-2-en-1-one], the IC50 came out at 1000 pM in experiment [1], 25400 pM in experiment [2] and 200 pM in experiment [3].

For the compound `C=CC(=O)N1CC[C@@H](F)[C@@H](Nc2nc(Nc3cnoc3)nc3[nH]cc(C)c23)C1` [Example 11, 1-((3S,4R)-4-fluoro-3-(2-(isoxazol-4-ylamino)-5-methyl-7H-pyrrolo[2,3-d]pyrimidin-4-ylamino)piperidin-1-yl)prop-2-en-1-one], the results for the IC50 in experiment [1], in experiment [2] and in experiment [3] were 9100 pM, 248000 pM and 700 pM, respectively.

For `C=CC(=O)N1CC[C@@H](F)[C@@H](Nc2nc(Nc3cnn(CC)c3)nc3[nH]cc(Cl)c23)C1` [Example 1, 1-((3S,4R)-3-(5-chloro-2-(1-ethyl-1H-pyrazol-4-ylamino)-7H-pyrrolo[2,3-d]pyrimidin-4-ylamino)-4-fluoropiperidin-1-yl)prop-2-en-1-one], the IC50 was determined as 600 pM in experiment [1], 30900 pM in experiment [2] and 100 pM in experiment [3].

As to `C=CC(=O)N1CC[C@@H](F)[C@@H](Nc2nc(Nc3cnn(CC(F)F)c3)nc3[nH]cc(Cl)c23)C1` [Example 2, 1-((3S,4R)-3-(5-chloro-2-(1-(2,2-difluoroethyl)-1H-pyrazol-4-ylamino)-7H-pyrrolo[2,3-d]pyrimidin-4-ylamino)-4-fluoropiperidin-1-yl)prop-2-en-1-one], the IC50 is 800 pM in experiment [1], 49000 pM in experiment [2] and 100 pM in experiment [3].

As to `C=CC(=O)N1CC[C@@H](F)[C@@H](Nc2nc(Nc3cnn(CC)c3)nc3[nH]cc(C)c23)C1` [Example 10, 1-((3S,4R)-3-(2-(1-ethyl-1H-pyrazol-4-ylamino)-5-methyl-7H-pyrrolo[2,3-d]pyrimidin-4-ylamino)-4-fluoropiperidin-1-yl)prop-2-en-1-one], the IC50 was found to be 3300 pM in experiment [1], 242000 pM in experiment [2] and 500 pM in experiment [3].

`C=CC(=O)N1CC[C@@H](F)[C@@H](Nc2nc(Nc3cnn(C4CC4)c3)nc3[nH]cc(C#N)c23)C1` [Example 8, 4-((3S,4R)-1-acryloyl-4-fluoropiperidin-3-ylamino)-2-(1-cyclopropyl-1H-pyrazol-4-ylamino)-7H-pyrrolo[2,3-d]pyrimidine-5-carbonitrle]: the IC50 in experiment [1] came to 900 pM; in experiment [3], 300 pM.

For the compound `C=CC(=O)N1CC[C@@H](F)[C@@H](Nc2nc(Nc3cnoc3)nc3[nH]cc(Cl)c23)C1` [Example 4, 1-((3S,4R)-3-(5-chloro-2-(isoxazol-4-ylamino)-7H-pyrrolo[2,3-d]pyrimidin-4-ylamino)-4-fluoropiperidin-1-yl)prop-2-en-1-one], the IC50 in experiment [1] worked out at 3200 pM; in experiment [2] it was 51800 pM; in experiment [3] it was 200 pM.

Consider `C=CC(=O)N1CC[C@@H](F)[C@@H](Nc2nc(Nc3cnn(CC(F)F)c3)nc3[nH]cc(C#N)c23)C1` [Example 7, 4-((3S,4R)-1-acryloyl-4-fluoropiperidin-3-ylamino)-2-(1-(2,2-difluoroethyl)-1H-pyrazol-4-ylamino)-7H-pyrrolo[2,3-d]pyrimidine-5-carbonitrle], for which the IC50 in experiment [1] came out at 800 pM; in experiment [3], 200 pM.

Regarding `C=CC(=O)N1CC[C@@H](F)[C@@H](Nc2nc(Nc3cnn(C4CC4)c3)nc3[nH]cc(Cl)c23)C1` [Example 3, 1-((3S,4R)-3-(5-chloro-2-(1-cyclopropyl-1H-pyrazol-4-ylamino)-7H-pyrrolo[2,3-d]pyrimidin-4-ylamino)-4-fluoropiperidin-1-yl)prop-2-en-1-one], the IC50 was determined as 800 pM in experiment [1] and 100 pM in experiment [3].

Regarding `C=CC(=O)N1CC[C@@H](F)[C@@H](Nc2nc(Nc3cnsc3)nc3[nH]cc(Cl)c23)C1` [Example 5, 1-((3S,4R)-3-(5-chloro-2-(isothiazol-4-ylamino)-7H-pyrrolo[2,3-d]pyrimidin-4-ylamino)-4-fluoropiperidin-1-yl)prop-2-en-1-one], the IC50 was 3900 pM in experiment [1], 288000 pM in experiment [2] and 600 pM in experiment [3].

In the case of `C=CC(=O)N1CC[C@@H](F)[C@@H](Nc2nc(Nc3cnn(CC)c3)nc3[nH]cc(C#N)c23)C1` [Example 6, 4-((3S,4R)-1-acryloyl-4-fluoropiperidin-3-ylamino)-2-(1-ethyl-1H-pyrazol-4-ylamino)-7H-pyrrolo[2,3-d]pyrimidine-5-carbonitrile], the IC50 in experiment [1] amounted to 900 pM; in experiment [3], 200 pM.
